Source: ChEMBL document CHEMBL3817741, “Synthesis, cytotoxic and urease inhibitory activities of some novel isatin-derived bis-Schiff bases and their copper(ii) complexes” (Medchemcomm, 2016)

Legend:
Urease = Urease (Canavalia ensiformis, UniProt P07374); assay: Inhibition of Jack bean urease assessed as production of ammonia after 30 mins by indophenol method
NCI-H157 = assay: Antiproliferative activity against human NCI-H157 cells assessed as cell growth inhibition after 48 hrs by SRB assay; type: functional, cell-based; settings: NCI-H157, 48 h
[1] = biological target: Urease (Canavalia ensiformis) (UniProt P07374); assay: Inhibition of Jack bean urease assessed as production of ammonia at 10 mM after 30 mins by indophenol method
[2] = Antiproliferative activity against African green monkey Vero cells assessed as reduction in cell viability at 100 uM after 48 hrs by SRB assay; type: cell-based; settings: chlorocebus sabaeus

Chain of Urease (Canavalia ensiformis) (P07374 whole entry, looked up): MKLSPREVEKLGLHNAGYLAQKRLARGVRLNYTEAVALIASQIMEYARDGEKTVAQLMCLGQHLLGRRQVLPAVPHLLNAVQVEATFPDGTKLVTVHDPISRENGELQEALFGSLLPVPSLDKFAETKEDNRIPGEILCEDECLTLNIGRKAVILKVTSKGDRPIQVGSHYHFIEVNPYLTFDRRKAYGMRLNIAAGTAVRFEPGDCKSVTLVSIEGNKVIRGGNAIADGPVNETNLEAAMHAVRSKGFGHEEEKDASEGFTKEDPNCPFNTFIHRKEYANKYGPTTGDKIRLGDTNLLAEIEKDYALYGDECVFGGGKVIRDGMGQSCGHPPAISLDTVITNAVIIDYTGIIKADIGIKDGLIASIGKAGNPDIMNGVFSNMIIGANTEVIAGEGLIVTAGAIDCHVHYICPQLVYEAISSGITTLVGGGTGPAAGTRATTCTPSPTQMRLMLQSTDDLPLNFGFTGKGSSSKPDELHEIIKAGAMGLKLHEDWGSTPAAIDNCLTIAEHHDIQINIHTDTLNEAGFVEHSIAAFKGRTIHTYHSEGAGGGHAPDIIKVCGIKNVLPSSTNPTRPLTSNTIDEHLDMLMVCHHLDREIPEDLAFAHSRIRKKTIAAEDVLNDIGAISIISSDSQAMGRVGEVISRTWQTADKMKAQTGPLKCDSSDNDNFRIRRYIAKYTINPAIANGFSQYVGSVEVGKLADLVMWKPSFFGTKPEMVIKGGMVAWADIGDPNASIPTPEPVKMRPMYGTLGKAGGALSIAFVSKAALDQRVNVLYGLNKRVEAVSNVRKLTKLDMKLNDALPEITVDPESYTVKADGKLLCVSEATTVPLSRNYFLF
Chain of Urease (P07374 whole entry): as the sequence (P07374 whole entry, looked up) above

| SMILES | IC50 (Urease) [µM] | IC50 (NCI-H157) [µM] | inhibition [1] [%] | inhibition at 48 h, 100 µM [2] [%] |
| --- | --- | --- | --- | --- |
| Cc1ccc(/N=C2\C(=O)Nc3ccc(Br)cc32)cc1/N=C1\C(=O)Nc2ccc(Br)cc21 | 0.04 | 2.32 | > 50 | 18.7 |
| Cc1ccc(/N=C2\C(=O)Nc3ccc(S(=O)(=O)O)cc32)cc1/N=C1\C(=O)Nc2ccc(S(=O)(=O)O)cc21 | 25.2 | 3.88 | > 50 | 11.7 |
| CC[C@]1(O)C[C@H]2CN(CCc3c([nH]c4ccccc34)[C@@](C(=O)OC)(c3cc4c(cc3OC)N(C=O)[C@H]3[C@@](O)(C(=O)OC)[C@H](OC(C)=O)[C@]5(CC)C=CCN6CC[C@]43[C@@H]65)C2)C1 [VINCRISTINE] | – | – | – | 16.8 |
| Cc1ccc(/N=C2\C(=O)Nc3ccc([N+](=O)[O-])cc32)cc1/N=C1\C(=O)Nc2ccc([N+](=O)[O-])cc21 | 5.86 | 3.73 | > 50 | 10.9 |
| Cc1ccc(/N=C2\C(=O)Nc3ccc(F)cc32)cc1/N=C1\C(=O)Nc2ccc(F)cc21 | 1.65 | 2.99 | > 50 | 22.1 |
| Cc1ccc2c(c1)/C(=N/c1ccc(C)c(/N=C3\C(=O)Nc4ccc(C)cc43)c1)C(=O)N2 | 0.34 | 3.01 | > 50 | 13.4 |
| Cc1ccc(/N=C2\C(=O)Nc3ccc(Cl)cc32)cc1/N=C1\C(=O)Nc2ccc(Cl)cc21 | 0.11 | 2.56 | > 50 | 18.5 |
| Cc1ccc(/N=C2\C(=O)Nc3ccccc32)cc1/N=C1\C(=O)Nc2ccccc21 | 1.15 | 3.76 | > 50 | 23.6 |
